Reference: patent US20240238228A1, “COMPOSITIONS AND METHODS FOR TREATING ALLERGIES AND INFLAMMATORY CONDITIONS” (UNIVERSITY OF PITTSBURGH-OF THE COMMONWEALTH SYSTEM OF …, priority 2021, published 2024)
No end group written: not given here.

Columns and labels:
[1] = biological target: calpain released into cell-free supernatants by IgE-activated murine BMMCs (murine) (UniProt O35350); assay: cell-based or functional assay
[2] = system: calpain; assay: Calpain inhibition in cell-free BMMC supernatants pulsed with inhibitor; format: biochemical, murine; settings: Ac-calpastatin 20 μg/mL, 30 min; mean±SEM from n=3
Method: (§1) Calpain activity was detected from cell-free supernatants using the Calpain-Glo Protease Assay (Promega). Supernatants were incubated with substrate for 10 min prior to luminescent detection. In some experiments, glyburide or vehicle (0.1% DMSO) were added to cells 10 min prior to Ag. ELISA kits from eBioscience (IL-13), BioLegend, (TNF and IL-10) or RayBiotech (NKA) and used in accord with the manufacturer's recommendations.
(§2) To detect early IL-10 release, 4×10^6 cells were incubated in serum free RPMI for a minimum of three hours prior to IgE loading and activation with DNP-HSA (100 ng/mL). Supernatants were collected and IL-10 was detected in accord with manufacturer's recommendations using 1.0% BSA to block and a top standard of 250 pg/mL. The lower limit of detection was 7.8 pg/mL. To evaluate the role of relationship between calpain and IL-10, cell-free supernatants were collected 10 min after activation and incubated with Ac-calpastatin (Ac-Cal; 20 μg/mL, Cayman) or vehicle control. Ac-Cal containing supernatants were further incubated for 30 min prior to IL-10 quantification by ELISA. To directly test IL-10 proteolysis, MCs were activated for 45 min, cell free supernatants were collected and pulsed with recombinant IL-10 (Biolegend, 250 pg/mL).

[3] = system: IL-10; assay: IL-10 degradation assays on BMMC supernatants; format: cell-based, murine; settings: supernatants collected 10 min after activation, pulsed with Ac-calpastatin 30 min
Method: as §2, with “Ac-Cal containing supernatants were further incubated for 30 min prior to IL-10 quantification by ELISA.” left out

[4] = system: MCs; settings: previous studies; cited from earlier work
[5] = system: IL-33; settings: mouse, in vivo
[6] = system: peanut allergy; assay: Peanut allergy desensitization by microneedle arrays; format: in vivo, mouse; settings: mouse, in vivo
[7] = system: recombinant murine IL-10; assay: Degradation of recombinant IL-10 by purified calpain (Western blot); format: biochemical; settings: rIL-10 incubated with increasing concentrations of purified calpain, 60 min
Method: The IL-10 degrading capacity of calpain, recombinant murine IL-10 (Peprotech) was incubated with human calpain I (Athens Research and Technology) for 60 min at 37° C., then denatured with Laemelli Buffer (BioRad) and resolved on 10% Tris-Glycine SDS-PAGE gels (BioRad). Proteins were transferred to […] PVDF membranes (BioRad), blocked for 1 h with Odyssey Blocking Buffer (LI-COR) and probed overnight with goat anti-mouse IL-10 antibody (RnD Systems). Ant-IL10 was detected with donkey anti-goat 800CW (LI-COR) and visualized on a LI-COR Imaging System. Densitometry was calculated using ImageStudioLite v5.2.5 (Licor). Values are presented as (rIL-10+calpain)/rIL-10 alone)*100.

[8] = system: NKA; assay: NKA in skin homogenates by ELISA; format: in vivo, mouse; settings: IL-10 1.0 ng/ear; without PCA induction
Method: as §1
Mouse ears were measured with a micrometer then sensitized with IgE in filter-sterilized PBS (Sigma, clone SPE-7, 20 ng/50 μl/ear) or vehicle control. Twenty-four hours later mice were treated with NKA (10 μg/ear, intradermal) or vehicle (PBS) 3 h prior to Ag (DNP-HSA 100 μg, in 200 μl, intravenous in saline) administration. Data are presented as change in ear thickness between baseline and the indicated time. Where indicated, mice were treated with recombinant murine IL-10 (Peprotech, 1.0 ng/ear) at the time of IgE injection or treated with glyburide (2.5 mg/kg, i.p), 3 h prior to Ag administration.
Cytokine expression in the skin was investigated 24 h after PCA induction. […] Protein concentrations were quantified using the BCA Protein Assay (Pierce). […] Densitometry values subtracting the median background from individual spot areas were calculated with ImageStudioLite v5.2.5. […]

Ac-calpastatin (Cayman) (from UniProt P20810 184-210) (peptide)
calpain activity [1]: 20.1%

Ac-calpastatin: a calpain inhibitor (Cayman) (Ac-DPMSSTYIEELGKREVTIPPKYRELLA; not fully specified (C-terminus)) [reference compound]
inhibition of calpain activity [2]: 20.1±1.72%
IL-10 levels in supernatants from IgE-activated BMMCs [3]: partially restored

NKA(4-10): a naturally truncated form of NKA [reference compound]
effect on MCs (β-hexosaminidase or histamine release as readouts) [4]: no effect

botulinum toxin A
IL-33 expression in skin [5]: reduces IL-33 expression
allergy to peanut allergen after CPE challenge [6]: desensitizes

B1: calpain: purified human calpain I (Athens Research and Technology), IL-10 degrading cysteine protease (protein)
chain: SEEIITPVYCTGVSAQVQKQRARELGLGRHENAIKYLGQDYEQLRVRCLQSGTLFRDEAFPPVPQSLGYKDLGPNSSKTYGIKWKRPTELLSNPQFIVDGATRTDICQGALGDCWLLAAIASLTLNDTLLHRVVPHGQSFQNGYAGIFHFQLWQFGEWVDVVVDDLLPIKDGKLVFVHSAEGNEFWSALLEKAYAKVNGSYEALSGGSTSEGFEDFTGGVTEWYELRKAPSDLYQIILKALERGSLLGCSIDISSVLDMEAITFKKLVKGHAYSVTGAKQVNYRGQVVSLIRMRNPWGEVEWTGAWSDSSSEWNNVDPYERDQLRVKMEDGEFWMSFRDFMREFTRLEICNLTPDALKSRTIRKWNTTLYEGTWRRGSTAGGCRNYPATFWVNPQFKIRLDETDDPDDYGDRESGCSFVLALMQKHRRRERRFGRDMETIGFAVYEVPPELVGQPAVHLKRDFFLANASRARSEQFINLREVSTRFRLPPGEYVVVPSTFEPNKEGDFVLRFFSEKSAGTVELDDQIQANLPDEQVLSEEEIDENFKALFRQLAGEDMEISVKELRTILNRIISKHKDLRTKGFSLESCRSMVNLMDRDGNGKLGLVEFNILWNRIRNYLSIFRKFDLDKSGSMSAYEMRMAIESAGFKLNKKLYELIITRYSEPDLAVDFDNFVCCLVRLETMFRFFKTLDTDLDGVVTFDLFKWLQLTMFA
amount of IL-10 detected by Western blot [7]: inversely proportional to calpain concentration

B2: recombinant IL-10: recombinant murine IL-10 (Peprotech) (protein)
chain: SRGQYSREDNNCTHFPVGQSHMLLELRTAFSQVKTFFQTKDQLDNILLTDSLMQDFKGYLGCQALSEMIQFYLVEVMPQAEKHGPEIKEHLNSLGEKLKTLRMRLRRCHRFLPCENKSKAVEQVKSDFNKLQDQGVYKAMNEFDIFINCIEAYMMIKMKS
steady state NKA in skin homogenates [8]: significantly increased
